# Measured values taken from patent US10047051B2, “Substituted pyridines and method of use” (AbbVie S.á{acute over (.)}r.l., priority 2015, dated 2018).
# Key:
# Assay type in all cases: cell-based
# [1] = molecular target: T1, CFTR ΔF508 mutant (Homo sapiens, UniProt P13569, DEL508-508); test: YFP-halide influx assay for the CFTR-ΔF508 mutation (CFBE41o- cells); settings: forskolin 10.67 μM; for EC50: from (1−F/F0) vs concentration plot
# T1 construct: expressed in transfected cells; host or cells: CFBE41o- cells, adenoviral transduction
# T1 sequence (P13569 with tags, fused parts or gaps DEL508-508): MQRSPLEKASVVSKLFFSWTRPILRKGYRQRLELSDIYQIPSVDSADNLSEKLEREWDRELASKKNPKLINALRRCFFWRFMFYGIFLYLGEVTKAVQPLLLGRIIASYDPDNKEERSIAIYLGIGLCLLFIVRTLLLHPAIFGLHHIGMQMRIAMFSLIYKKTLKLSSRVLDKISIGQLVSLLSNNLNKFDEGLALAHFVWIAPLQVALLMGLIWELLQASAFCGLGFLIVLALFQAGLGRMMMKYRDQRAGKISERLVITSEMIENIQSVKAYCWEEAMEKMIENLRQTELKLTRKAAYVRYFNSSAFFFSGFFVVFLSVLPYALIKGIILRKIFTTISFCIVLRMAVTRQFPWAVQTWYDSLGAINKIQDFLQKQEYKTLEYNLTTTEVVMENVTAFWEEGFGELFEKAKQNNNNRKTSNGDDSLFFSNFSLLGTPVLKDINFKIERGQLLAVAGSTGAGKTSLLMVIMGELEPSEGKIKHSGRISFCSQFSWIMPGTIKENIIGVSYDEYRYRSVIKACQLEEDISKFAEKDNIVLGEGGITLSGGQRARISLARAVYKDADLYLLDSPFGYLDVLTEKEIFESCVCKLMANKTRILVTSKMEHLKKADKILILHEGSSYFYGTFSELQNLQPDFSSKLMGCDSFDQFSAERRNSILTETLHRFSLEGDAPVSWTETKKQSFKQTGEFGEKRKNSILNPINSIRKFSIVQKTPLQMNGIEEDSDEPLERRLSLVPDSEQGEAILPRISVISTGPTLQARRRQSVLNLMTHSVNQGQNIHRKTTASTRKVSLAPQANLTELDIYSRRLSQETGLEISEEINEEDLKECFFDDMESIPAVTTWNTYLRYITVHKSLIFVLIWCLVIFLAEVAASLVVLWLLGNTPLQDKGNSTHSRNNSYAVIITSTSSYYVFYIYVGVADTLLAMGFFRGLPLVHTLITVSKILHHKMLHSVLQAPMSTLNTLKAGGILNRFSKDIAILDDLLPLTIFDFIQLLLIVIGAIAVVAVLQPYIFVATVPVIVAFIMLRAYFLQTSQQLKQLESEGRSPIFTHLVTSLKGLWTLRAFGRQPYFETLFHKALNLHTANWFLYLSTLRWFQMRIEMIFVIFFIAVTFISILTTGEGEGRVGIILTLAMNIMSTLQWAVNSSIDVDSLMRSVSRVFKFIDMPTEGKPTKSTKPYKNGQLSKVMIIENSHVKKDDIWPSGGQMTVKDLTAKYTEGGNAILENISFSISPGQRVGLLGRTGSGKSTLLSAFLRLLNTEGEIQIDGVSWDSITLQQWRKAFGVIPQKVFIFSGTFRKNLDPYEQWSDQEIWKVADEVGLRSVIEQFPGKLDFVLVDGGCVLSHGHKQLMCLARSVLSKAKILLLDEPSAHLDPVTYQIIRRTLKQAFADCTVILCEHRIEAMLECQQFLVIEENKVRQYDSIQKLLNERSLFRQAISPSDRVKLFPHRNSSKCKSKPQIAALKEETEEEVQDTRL
# Summary of the method: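 EC50 derived from plotting 1−F/F0 (fluorescence 36 s after iodide injection over pre-injection value) against compound concentration. Cells: CFBE41o- transduced with ΔF508-CFTR and YFP quench reporter, corrected 24 h at 27° C or by a CFTR modulator at 37° C.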
# [2] = molecular target: T2, CFTR G551D mutant (Homo sapiens, UniProt P13569, G551D); test: YFP-halide influx assay for the CFTR-G551D mutation (HEK293 cells); settings: forskolin 10.67 μM
# T2 construct: expressed in transfected cells; host or cells: HEK293 cells, reverse transfection with plasmids
# T2 sequence (P13569 whole entry G551D): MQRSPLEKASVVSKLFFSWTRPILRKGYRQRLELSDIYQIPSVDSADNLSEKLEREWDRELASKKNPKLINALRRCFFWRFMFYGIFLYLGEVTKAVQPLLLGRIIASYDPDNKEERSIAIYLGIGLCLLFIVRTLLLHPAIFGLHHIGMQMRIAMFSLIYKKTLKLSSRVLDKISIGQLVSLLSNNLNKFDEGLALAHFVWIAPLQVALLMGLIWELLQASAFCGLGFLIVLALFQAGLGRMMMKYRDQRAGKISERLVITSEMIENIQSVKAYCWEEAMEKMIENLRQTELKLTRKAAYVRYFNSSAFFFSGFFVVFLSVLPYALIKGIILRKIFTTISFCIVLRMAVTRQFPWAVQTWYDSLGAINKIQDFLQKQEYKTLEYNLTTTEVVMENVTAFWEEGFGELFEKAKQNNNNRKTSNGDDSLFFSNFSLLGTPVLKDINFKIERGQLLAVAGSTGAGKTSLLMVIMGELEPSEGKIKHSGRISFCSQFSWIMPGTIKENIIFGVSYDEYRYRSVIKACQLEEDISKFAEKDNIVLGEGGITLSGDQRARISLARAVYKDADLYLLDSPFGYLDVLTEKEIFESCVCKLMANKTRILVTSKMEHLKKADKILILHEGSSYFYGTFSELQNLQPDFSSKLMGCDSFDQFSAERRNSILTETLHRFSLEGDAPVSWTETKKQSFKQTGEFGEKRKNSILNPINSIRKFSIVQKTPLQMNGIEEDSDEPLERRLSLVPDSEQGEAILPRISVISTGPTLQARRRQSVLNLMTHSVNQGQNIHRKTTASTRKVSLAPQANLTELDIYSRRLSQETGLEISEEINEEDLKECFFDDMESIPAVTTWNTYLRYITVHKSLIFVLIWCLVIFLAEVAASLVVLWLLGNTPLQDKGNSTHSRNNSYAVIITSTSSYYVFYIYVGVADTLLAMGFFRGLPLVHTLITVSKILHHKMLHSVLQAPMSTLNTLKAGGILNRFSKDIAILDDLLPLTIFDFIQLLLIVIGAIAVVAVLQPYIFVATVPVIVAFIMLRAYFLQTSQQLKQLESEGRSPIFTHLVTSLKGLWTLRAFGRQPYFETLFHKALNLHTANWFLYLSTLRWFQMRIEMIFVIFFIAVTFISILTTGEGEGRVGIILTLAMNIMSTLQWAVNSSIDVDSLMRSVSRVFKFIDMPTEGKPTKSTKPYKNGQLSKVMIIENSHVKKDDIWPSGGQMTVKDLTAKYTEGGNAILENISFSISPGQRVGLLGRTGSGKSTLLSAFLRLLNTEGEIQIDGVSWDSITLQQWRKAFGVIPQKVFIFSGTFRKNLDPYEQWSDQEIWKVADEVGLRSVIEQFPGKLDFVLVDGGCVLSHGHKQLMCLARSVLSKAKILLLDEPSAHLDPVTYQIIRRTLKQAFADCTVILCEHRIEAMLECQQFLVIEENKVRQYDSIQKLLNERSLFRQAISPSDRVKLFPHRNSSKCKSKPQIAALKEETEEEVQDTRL
# Summary of the method: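 Channel opening read as I⁻-driven quenching of a YFP H148Q/I152L/F47L reporter over 7 s post-injection, expressed as 1−F/F0 and fitted against concentration for EC50. Cells were HEK293 co-transfected at seeding with G551D CFTR plus reporter, then grown 24 h at 37 °C, 5% CO2.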
# [3] = molecular target: G551D CFTR (Homo sapiens, UniProt P13569, G551D); test: TECC assay, FRT-CFTR G551D protocol; settings: FRT cells stably transfected with G551D CFTR, high expression cells, increase in Isc after forskolin
# Chain of G551D CFTR (P13569 whole entry G551D): as above
# Protocol: For G551D recordings, Fischer Rat Thyroid (FRT) cells stably transfected with G551D CFTR (a low CFTR-G551D expressing cell line and a high expressing CFTR-G551D cell line from Rosalind Franklin University of Medicine and Science, North Chicago, Ill.) are plated on Transwell® supports (Costar 6.5 mm diameter, 0.4 μm pore size). The cells are grown for 8-10 days under liquid-liquid interface conditions prior to electrophysiological readings. For electrophysiological recording, the FRT-G551D cells are mounted in the TECC heating plate for electrophysiological measurement and kept at 37° C. The epithelia are bathed in HEPES buffered culturing medium without FBS on both the basolateral and apical sides. Apical amiloride is used to inhibit the endogenous ENaC currents while forkolin is applied on both apical and basolateral side to stimulate CFTR. After forskolin triggering, compounds are added on both sides to test their potential for increasing CFTR gating. Measurements are done during a 10 minute timeframe with recordings every 2 minutes. The increase in Isc is used as a measure for the increased CFTR activity, EC50 values can be generated by measuring impact of different concentrations of compound on Isc on the cells, for this purpose each transwell is treated with a different compound concentration. Inh-172, an inhibitor specific for CFTR, is used to test the specificity of the tested compounds.
# [4] = molecular target: T3, CFTR-G178R (Homo sapiens, UniProt P13569, G178R); test: YFP-halide influx assay for the CFTR-G178R
# T3 construct: expressed in transfected cells
# T3 sequence (P13569 whole entry G178R): as the sequence (P13569 whole entry G551D) above, with G178R, D551G counted along it
# Source text: (§1) The YFP halide influx assay measured the functionality of the cystic fibrosis Transmembrane Conductance regulator (CFTR) channels. The assay was used to evaluate the capacity of compounds to increase the channel opening of existing mutant CFTR channels in the membrane. It makes use of the observation that the yellow fluorescent protein (YFP) variant YFP H148Q, I152L, F47L has its fluorescence substantially quenched by halide ions like Cl^− and I^− (Galietta, L. J. V., Haggie, P. M., Verkman, A. S., 2001. Green fluorescent protein-based halide indicators with improved chloride and iodide affinities. FEBS Lett. 499, 220-224. doi:10.1016/S0014-5793(01)02561-3).
# (§2) For this purpose, HEK293-cells were seeded in 96 well plates. During seeding, the cells were reverse-transfected with plasmid vectors that direct the expression of the CFTR G551D mutant and of the YFP reporter. Cells were incubated at 37° C., 5% CO2 for 24 hours so as to allow for sufficient expression of the CFTR protein.
# (§3) The I^−-induced quenching of fluorescence was recorded immediately after injection of I^− for 7 seconds. The capacity of a compound to increase the channel opening was directly correlated with the decrease in fluorescence, and was expressed as (1−(fluorescence after 7 seconds (F)/fluorescence before injection (F0))) and an EC50 was derived from a (1−F/F0) vs compound concentration plot.
# (§4) Similar YHA assays were developed for other channel gating defective or channel conductance defective CFTR mutants to determine effect of compound on channel activity. Examples of mutants are G178R, G1349D, S549N, R117H, R334W. This assay is also used for additional class I CFTR mutants, including G542X, W1282X; class II mutants including N1303K, and for class III mutants including S1251N; or wild-type CFTR.
# [5] = molecular target: T4, CFTR-G1349D (Homo sapiens, UniProt P13569, G1349D); test: YFP-halide influx assay for the CFTR-G1349D
# T4 construct: expressed in transfected cells
# T4 sequence (P13569 whole entry G1349D): as the sequence (P13569 whole entry G551D) above, with D551G, G1349D counted along it
# Source text: as §1, §2, §3, §4
# [6] = molecular target: T5, CFTR-S549N (Homo sapiens, UniProt P13569, S549N); test: YFP-halide influx assay for the CFTR-S549N; set-up: % Activation: concentration or dose not given beside the values
# T5 construct: expressed in transfected cells
# T5 sequence (P13569 whole entry S549N): as the sequence (P13569 whole entry G551D) above, with S549N, D551G counted along it
# Source text: as §1, §2, §3, §4
# [7] = molecular target: T6, CFTR-R117H (Homo sapiens, UniProt P13569, R117H); test: YFP-halide influx assay for the CFTR-R117H
# T6 construct: expressed in transfected cells
# T6 sequence (P13569 whole entry R117H): as the sequence (P13569 whole entry G551D) above, with R117H, D551G counted along it
# Source text: as §1, §2, §3, §4
% Activation [1] [%],EC50 [1] [nM],% Activation [2] [%],EC50 [2] [nM],EC50 [3] [nM],% Activation [4] [%],EC50 [4] [nM],% Activation [5] [%],EC50 [5] [nM],% Activation [6] [%],EC50 [6] [nM],% Activation [7] [%],EC50 [7] [nM],Compound
113.0,8.8,82.7,1640,1130,–,–,–,–,–,–,–,–,"Nc1cc(S(=O)(=O)c2ccc(OC(F)(F)F)cc2)cnc1C(=O)N[C@@H]1CCCC[C@H]1O (racemic) [Compound 17, rac-3-amino-N-[(1R,2R)-2-hydroxycyclohexyl]-5-{[4-(trifluoromethoxy)phenyl]sulfonyl}pyridine-2-carboxamide]"
109.7,17.7,73.9,1980,1980,98.2,392,83.2,291,91.8,839,102.0,451,"COCC(O)CNC(=O)c1ncc(S(=O)(=O)c2ccc(OC(F)(F)F)cc2)cc1N (stereo not drawn) [Compound 3, 3-amino-N-(2-hydroxy-3-methoxypropyl)-5-{[4-(trifluoromethoxy)phenyl]sulfonyl}pyridine-2-carboxamide]"
113.5,21.7,75.7,835,1350,95.3,442,90.4,1600,84.1,945,90.4,296,"CC(C)(O)CNC(=O)c1ncc(S(=O)(=O)c2ccc(C(F)(F)F)cc2)cc1N [Compound 11, 3-amino-N-(2-hydroxy-2-methylpropyl)-5-{[4-(trifluoromethyl)phenyl]sulfonyl}pyridine-2-carboxamide]"
109.0,2.6,69.3,361,669,–,–,–,–,–,–,–,–,"Nc1cc(S(=O)(=O)c2ccc(OC(F)(F)F)cc2)cnc1C(=O)NCC1(O)CC1 [Compound 15, 3-amino-N-[(1-hydroxycyclopropyl)methyl]-5-{[4-(trifluoromethoxy)phenyl]sulfonyl}pyridine-2-carboxamide]"
109.1,43.1,79.2,> 3330,1430,–,–,–,–,–,–,–,–,"CC(C)(CO)CNC(=O)c1ncc(S(=O)(=O)c2ccc(OC(F)(F)F)cc2)cc1N [Compound 18, 3-amino-N-(3-hydroxy-2,2-dimethylpropyl)-5-{[4-(trifluoromethoxy)phenyl]sulfonyl}pyridine-2-carboxamide]"
98.5,29.7,64.8,893,3700,–,–,–,–,–,–,–,–,"C[C@@H](O)CNC(=O)c1ncc(S(=O)(=O)c2ccc(OC(F)(F)F)cc2)cc1N [Compound 20, 3-amino-N-[(2R)-2-hydroxypropyl]-5-{[4-(trifluoromethoxy)phenyl]sulfonyl}pyridine-2-carboxamide]"
106.6,21.4,52.2,423,2830,–,–,–,–,–,–,–,–,"CC(CO)CNC(=O)c1ncc(S(=O)(=O)c2ccc(OC(F)(F)F)cc2)cc1N (stereo not drawn) [Compound 24, 3-amino-N-(3-hydroxy-2-methylpropyl)-5-{[4-(trifluoromethoxy)phenyl]sulfonyl}pyridine-2-carboxamide]"
115.2,10.9,55.0,287,116,–,–,87.6,214,–,–,94.2,92.8,"CC(C)(O)C1CN(C(=O)c2ncc(S(=O)(=O)c3ccc(C(F)(F)F)cc3)cc2N)C1 [Compound 165, (3-amino-5-{[4-(trifluoromethyl)phenyl]sulfonyl}pyridin-2-yl)[3-(2-hydroxypropan-2-yl)azetidin-1-yl]methanone]"
103.3,52.3,59.2,450,–,98.4,305,83.9,129,88.2,256,91.3,442,"Nc1cc(S(=O)(=O)c2ccc(C(F)(F)F)cc2)cnc1C(=O)N1CC(OCC(F)F)C1 [Compound 231, (3-amino-5-{[4-(trifluoromethyl)phenyl]sulfonyl}pyridin-2-yl)[3-(2,2-difluoroethoxy)azetidin-1-yl]methanone]"
117.0,11.6,65.9,675,–,84.5,502,71.0,1110,90.7,691,103.0,608,"Nc1cc(S(=O)(=O)c2ccc(C(F)(F)F)cc2)cnc1C(=O)NCC(F)(F)CO [Compound 241, 3-amino-N-(2,2-difluoro-3-hydroxypropyl)-5-{[4-(trifluoromethyl)phenyl]sulfonyl}pyridine-2-carboxamide]"
102.5,4.3,92.6,1120,–,97.2,149,91.0,173,105.0,74.4,126.0,225,"Nc1cc(S(=O)(=O)c2ccc(F)cc2)c(-c2ccc(F)cc2)nc1C(=O)NC[C@@H](O)C(F)(F)F [Compound 259, 3-amino-6-(4-fluorophenyl)-5-[(4-fluorophenyl)sulfonyl]-N-[(2R)-3,3,3-trifluoro-2-hydroxypropyl]pyridine-2-carboxamide]"
98.2,5.5,44.7,242,–,79.3,109,79.8,149,75.6,92.1,74.2,155,"Nc1cc(S(=O)(=O)c2ccc(OC(F)(F)F)cc2)cnc1C(=O)Nc1cc[nH]n1 [Compound 291, 3-amino-N-(1H-pyrazol-3-yl)-5-{[4-(trifluoromethoxy)phenyl]sulfonyl}pyridine-2-carboxamide]"
